Patent US11384071B2, “Inhibitors of mechanotransduction to treat pain and modulate touch perception” (Max-Delbrück-Centrum für Molekulare Medizin in der …, priority 2016, dated 2022)

Test system: mice with chronic constriction injury
Experiment: Chronic constriction injury (CCI) model, paw withdrawal thresholds to von Frey filaments
Type: in vivo, mouse
Conditions: CCI, systemic treatment
From the text: In deeply anaesthetized mice using isoflurane delivered in 100% 02 (Univentor 410 Anaesthesia unit; Univentor, Malta), four loose silk (5/0; Catgut GmbH Markneukirchen) ligatures were placed around the sciatic nerve at the level of the right mid-thigh as described previously (Wetzel et al., 2007).
Mice were allowed to habituate to the testing apparatus (acrylic chambers 10×10 cm in size, suspended above a wired mesh grid) one hour prior to behavioral testing. Only once the subject was at rest and not moving, calibrated von-Frey hair monofilaments (Aesthesio® set of 20 monofilaments, Ugo Basil) were applied to the plantar surface of the hind paw in order to deliver target forces from 0.008 grams to 4 grams increasing in an approximately logarithmic scale. A single stimulus indicated by a slight bending of the filament lasted for two seconds unless the mouse withdrew its paw. In order to measure mechanosensitivity the up-and-down method described by Chaplan^13 was adapted as follows: Testing began with a filament delivering a target force of 0.4 g, but filaments were applied three times. A positive response was noted if the subject withdrew the paw to all three filament applications, so that the successively smaller filament was presented next. […] Paw withdrawal thresholds were calculated as median of 23 to 30 determined turning points of the particular force stimuli applied to the subject.
Drug injections of OB-1 or DMSO alone were dissolved in Ringer's solution (in mM: 135 NaCl, 5 KCl, 5 HEPES, 1.8 CaCl2), 1 MgCl2) to make the OB-1 and vehicle solution. Injections were made 3 hours prior to behavioral testing, approximately 20 μl solution, 250 pmol per paw, was injected into the palm with a Hamilton syringe, gauge 33. During the injection procedure, the mouse was anaesthetized with isoflurane (1.5 to 2.5% in 02). The injection procedure lasted around 3 minutes after which the mouse was moved to the home cage for recovery before behavioral testing.
We next interrogated whether local application of OB-1 can ameliorate tactile-evoked pain behavior in neuropathic models. […] We decided to test this idea more directly by testing the effects of local OB-1 on the mechanical sensitivity of Stoml3^−/− mice with CCI. […] Off-target effects are an issue for any biologically active small molecule. We therefore tested the effects of 20 μM OB-1 in a commercially available in vitro pharmacology panel (www.cerep.fr) consisting of 79 receptors and ion channels.

Q: With `NCC1(CC(=O)O)CCCCC1` [gabapentin, reference compound] as the compound, how does the tactile allodynia read?
A: reversal of tactile allodynia
